Where two headings read alike, the source gives them in different places.
How the values were obtained:
EZH2 (rPRC2) = EZH2 (rPRC2) (Homo sapiens, UniProt Q15910); test: EZH2 assay: rPRC2, biotinylated oligonucleosomes, 3H SAM methyl transfer (FlashPlate scintillation); assay type: biochemical; conditions: biotinylated oligonucleosome substrate
Procedure: Assays were carried out by mixing rPRC2 together with biotinylated oligonucleosome substrates in the presence of the radio-labeled enzyme co-factor, S-adenosyl-1-methionine (^3H SAM) (Perkin Elmer) and monitoring the enzymatically mediated transfer of tritiated methyl groups from ^3H SAM to histone lysine residues. The amount of resulting tritiated methyl histone product was measured by first capturing the biotinylated oligonucleosomes in streptavidin (SAV) coated FlashPlates (Perkin Elmer), followed by a wash step to remove un-reacted ^3H SAM, and then counting on a TopCount NXT 384 well plate scintillation counter (Perkin Elmer). The final assay conditions for EZH2 were as follows: 50 mM Tris Buffer pH 8.5, 1 mM DTT, 69 μM Brij-35 detergent, 5.0 mM MgCl2, 0.1 mg/mL BSA, 0.2 μM ^3H SAM, 0.2 μM biotinylated oligonucleosomes, 3.6 μM H3K27 mc3 peptide and 2 nM EZH2.
A 12.5 μL volume of the HMT enzyme, H3K27me3 peptide and oligonucleosome substrate in assay buffer was added to each well of the assay plate using a Multidrop Combi (ThermoFisher). Compounds were pre-incubated with the enzyme for 20 min, followed by initiation of the methyltransferase reaction by addition of 12.5 μL of ^3H SAM in assay buffer (final volume=25 μL). The final concentrations of compounds ranged from a top default concentration of 80 μM down to 0.16 μM in ten 2-fold dilution steps. Reactions were carried out for 60 minutes and quenched with 20 μL per well of 1.96 mM SAH, 50 mM Tris pH 8.5, 200 mM EDTA. Stopped reactions were transferred to SAV coated Flashplates (Perkin Elmer), incubated for 120 min, washed with a plate washer, and then read on the TopCount NXT (1.0 min/well) to measure the amount of methyl histone product formed during the reaction.

Y641N EZH2 = Y641N EZH2 (Homo sapiens, UniProt Q15910, Y641N); test: Y641N EZH2 assay: as EZH2 assay, with reconstituted H3K27Me2 oligonucleosomes as substrate; assay type: biochemical
[1] = EZH2 IC50, wild-type EZH2 (rPRC2)
[2] = Y641N EZH2 IC50, Y641N mutant EZH2, H3K27Me2 oligonucleosome substrate
[3] = wild-type EZH2 (rPRC2), read-out: EZH2 IC50
[4] = Y641N mutant EZH2, H3K27Me2 oligonucleosome substrate, read-out: Y641N EZH2 IC50

Sequence of EZH2 (rPRC2) (Q15910 whole entry): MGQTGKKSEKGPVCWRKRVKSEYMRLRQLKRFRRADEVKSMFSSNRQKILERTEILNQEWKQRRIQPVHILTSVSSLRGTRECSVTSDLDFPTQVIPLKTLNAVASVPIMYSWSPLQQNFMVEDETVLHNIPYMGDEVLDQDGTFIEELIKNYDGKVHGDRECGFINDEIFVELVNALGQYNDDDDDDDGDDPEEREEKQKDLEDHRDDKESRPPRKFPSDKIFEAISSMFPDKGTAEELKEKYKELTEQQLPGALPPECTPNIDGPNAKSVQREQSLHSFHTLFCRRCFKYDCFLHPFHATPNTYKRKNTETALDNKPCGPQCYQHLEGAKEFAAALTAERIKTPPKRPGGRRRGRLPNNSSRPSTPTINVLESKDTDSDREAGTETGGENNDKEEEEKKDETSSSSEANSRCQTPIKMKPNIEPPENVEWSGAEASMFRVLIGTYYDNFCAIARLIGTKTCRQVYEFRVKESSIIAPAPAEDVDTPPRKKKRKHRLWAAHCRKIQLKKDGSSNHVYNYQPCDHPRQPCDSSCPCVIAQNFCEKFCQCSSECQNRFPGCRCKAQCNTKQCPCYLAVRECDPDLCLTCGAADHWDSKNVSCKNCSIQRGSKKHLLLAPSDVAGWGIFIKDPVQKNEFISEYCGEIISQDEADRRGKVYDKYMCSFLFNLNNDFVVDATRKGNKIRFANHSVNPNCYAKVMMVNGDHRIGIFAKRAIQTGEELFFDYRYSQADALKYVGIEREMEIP
Sequence of EZH2 (rPRC2) (O75530 whole entry partner): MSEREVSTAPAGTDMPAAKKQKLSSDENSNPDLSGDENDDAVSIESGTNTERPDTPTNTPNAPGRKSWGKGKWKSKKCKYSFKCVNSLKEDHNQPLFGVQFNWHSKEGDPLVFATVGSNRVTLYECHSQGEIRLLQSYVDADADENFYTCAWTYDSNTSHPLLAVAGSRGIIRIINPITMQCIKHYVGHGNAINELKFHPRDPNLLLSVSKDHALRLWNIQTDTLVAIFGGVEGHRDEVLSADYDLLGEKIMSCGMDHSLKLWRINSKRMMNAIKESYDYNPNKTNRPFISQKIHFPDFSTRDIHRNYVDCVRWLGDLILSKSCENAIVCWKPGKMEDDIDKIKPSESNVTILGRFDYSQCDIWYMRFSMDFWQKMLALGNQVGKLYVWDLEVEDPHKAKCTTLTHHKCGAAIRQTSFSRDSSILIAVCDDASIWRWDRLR
Sequence of EZH2 (rPRC2) (Q15022 whole entry partner): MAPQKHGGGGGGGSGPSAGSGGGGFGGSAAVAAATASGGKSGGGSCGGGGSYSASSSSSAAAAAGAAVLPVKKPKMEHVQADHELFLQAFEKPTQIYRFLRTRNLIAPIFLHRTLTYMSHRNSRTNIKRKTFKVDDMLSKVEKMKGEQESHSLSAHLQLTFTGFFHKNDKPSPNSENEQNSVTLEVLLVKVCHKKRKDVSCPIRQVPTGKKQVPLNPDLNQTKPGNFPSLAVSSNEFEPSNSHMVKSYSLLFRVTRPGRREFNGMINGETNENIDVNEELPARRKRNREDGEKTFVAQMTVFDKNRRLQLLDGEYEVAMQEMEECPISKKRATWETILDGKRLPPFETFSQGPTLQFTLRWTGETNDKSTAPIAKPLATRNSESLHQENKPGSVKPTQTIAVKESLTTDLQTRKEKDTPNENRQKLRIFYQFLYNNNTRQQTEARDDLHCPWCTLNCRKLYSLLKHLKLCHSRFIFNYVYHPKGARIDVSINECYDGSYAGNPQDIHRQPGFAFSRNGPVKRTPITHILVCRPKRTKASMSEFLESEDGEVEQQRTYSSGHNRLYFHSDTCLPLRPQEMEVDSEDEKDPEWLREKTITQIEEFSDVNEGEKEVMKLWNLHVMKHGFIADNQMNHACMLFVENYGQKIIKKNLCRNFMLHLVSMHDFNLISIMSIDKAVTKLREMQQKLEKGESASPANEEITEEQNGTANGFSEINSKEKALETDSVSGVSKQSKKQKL
Sequence of Y641N EZH2 (Q15910 whole entry Y641N): as the sequence (Q15910 whole entry) above, with Y641N counted along it
Sequence of Y641N EZH2 (O75530 whole entry partner): as the sequence (O75530 whole entry partner) above
Sequence of Y641N EZH2 (Q15022 whole entry partner): as the sequence (Q15022 whole entry partner) above

| Compound | IC50 (EZH2 (rPRC2); [1]) [nM] | IC50 (Y641N EZH2; [2]) [nM] | also measured |
| --- | --- | --- | --- |
| Cc1cc(C)c(CNC(=O)c2c(C)n(C(C)c3ccccc3)c3cccnc23)c(O)n1 (racemic) [Compound 126, N-((2-hydroxy-4,6-dimethylpyridin-3-yl)methyl)-2-methyl-1-(1-phenylethyl)-1H-pyrrolo[3,2-b]pyridine-3-carboxamide] | 100 to 1000 | 1000 to 10000 |  |
| Cc1cc(C)c(CNC(=O)c2c(C3CC3)n(C(C)c3ccccc3)c3ccccc23)c(O)n1 (racemic) [Compound 131, (±)-2-cyclopropyl-N-((2-hydroxy-4,6-dimethylpyridin-3-yl)methyl)-1-(1-phenylethyl)-1H-indole-3-carboxamide] |  |  | EZH2 IC50 (EZH2 (rPRC2); wild-type EZH2 (rPRC2)): *(1.0 μM); Y641N EZH2 IC50 (Y641N EZH2; Y641N mutant EZH2, H3K27Me2 oligonucleosome substrate): *(1.0 μM) |
| Cc1cc(C)c(CNC(=O)c2c(C)n(C(C)c3ccccc3)c3c(=O)n(C)ccc23)c(=O)[nH]1 (racemic) [Compound 139, N-((4,6-dimethyl-2-oxo-1,2-dihydropyridin-3-yl)methyl)-2,6-dimethyl-7-oxo-1-(1-phenylethyl)-6,7-dihydro-1H-pyrrolo[2,3-c]pyridine-3-carboxamide] |  |  | IC50 (EZH2 (rPRC2); [3]): 100 to 1000 nM; IC50 (Y641N EZH2; [4]): 1000 to 10000 nM |
| Cc1cc(C)c(CNC(=O)c2c(C)n(C(C)c3ccccc3C)c3ccccc23)c(=O)[nH]1 (racemic) [Compound 174, (±)-N-((4,6-dimethyl-2-oxo-1,2-dihydropyridin-3-yl)methyl)-2-methyl-1-(1-(o-tolyl)ethyl)-1H-indole-3-carboxamide] | 100 to 1000 | 1000 to 10000 |  |
| Cc1cc(C)c(CNC(=O)c2c(C)n(C(C)c3ccccc3C#N)c3ccccc23)c(=O)[nH]1 (racemic) [Compound 178, (±)-1-(1-(2-cyanophenyl)ethyl)-N-((4,6-dimethyl-2-oxo-1,2-dihydropyridin-3-yl)methyl)-2-methyl-1H-indole-3-carboxamide] | 100 to 1000 | 1000 to 10000 |  |
| Cc1cc(C)c(CNC(=O)c2c(C)n(C(C)c3ccc(S(C)(=O)=O)cc3)c3ccccc23)c(=O)[nH]1 (racemic) [Compound 179, (±)-N-((4,6-dimethyl-2-oxo-1,2-dihydropyridin-3-yl)methyl)-2-methyl-1-(1-(4-(methylsulfonyl)phenyl)ethyl)-1H-indole-3-carboxamide] | < 100 | 100 to 1000 |  |
| CCC(C)n1c(C)c(C(=O)NCc2c(C)cc(C)[nH]c2=O)c2cccnc21 (racemic) [Compound 185, (±)-1-(sec-butyl)-N-((4,6-dimethyl-2-oxo-1,2-dihydropyridin-3-yl)methyl)-2-methyl-1H-pyrrolo[2,3-b]pyridine-3-carboxamide] | 100 to 1000 | 1000 to 10000 |  |
| COc1ccccc1C(C)n1c(C)c(C(=O)NCc2c(C)cc(C)[nH]c2=O)c2ccccc21 (racemic) [Compound 186, (±)-N-((4,6-dimethyl-2-oxo-1,2-dihydropyridin-3-yl)methyl)-1-(1-(2-methoxyphenyl)ethyl)-2-methyl-1H-indole-3-carboxamide] | 100 to 1000 | 100 to 1000 |  |
| Cc1cc(C)c(CNC(=O)c2c(C)n(C(C)CCO)c3ncccc23)c(=O)[nH]1 (racemic) [Compound 193, (±)-N-((4,6-dimethyl-2-oxo-1,2-dihydropyridin-3-yl)methyl)-1-(4-hydroxybutan-2-yl)-2-methyl-1H-pyrrolo[2,3-b]pyridine-3-carboxamide] | 100 to 1000 | 1000 to 10000 |  |
| Cc1cc(C)c(COC(=O)c2c(C)n(C3CCOC3)c3ncccc23)c(=O)[nH]1 (racemic) [Compound 202, (±)-(4,6-dimethyl-2-oxo-1,2-dihydropyridin-3-yl)methyl 2-methyl-1-(tetrahydrofuran-3-yl)-1H-pyrrolo[2,3-b]pyridine-3-carboxylate] | 100 to 1000 | 1000 to 10000 |  |
| Cc1cc(C)c(CNC(=O)c2c(C)n(C(C)c3cccc(-c4ccncn4)c3)c3ccccc23)c(=O)[nH]1 (racemic) [Compound 205, (±)-N-((4,6-dimethyl-2-oxo-1,2-dihydropyridin-3-yl)methyl)-2-methyl-1-(1-(3-(pyrimidin-4-yl)phenyl)ethyl)-1H-indole-3-carboxamide] | 100 to 1000 | 100 to 1000 |  |
| COc1cccc(C(C)n2c(C)c(C(=O)NCc3c(C)cc(C)[nH]c3=O)c3cccnc32)c1 (racemic) [Compound 206, (±)-N-((4,6-dimethyl-2-oxo-1,2-dihydropyridin-3-yl)methyl)-1-(1-(3-methoxyphenyl)ethyl)-2-methyl-1H-pyrrolo[2,3-b]pyridine-3-carboxamide] | 100 to 1000 | 1000 to 10000 |  |
| COc1cc(C)[nH]c(=O)c1CNC(=O)c1c(C)n(C(C)C#N)c2ncccc12 (racemic) [Compound 214, (±)-1-(1-cyanoethyl)-N-((4-methoxy-6-methyl-2-oxo-1,2-dihydropyridin-3-yl)methyl)-2-methyl-1H-pyrrolo[2,3-b]pyridine-3-carboxamide] | 100 to 1000 | 1000 to 10000 |  |
| CCCc1cc(C)[nH]c(=O)c1CNC(=O)c1c(C)n(C(C)COC)c2ncccc12 (racemic) [Compound 216, (±)-1-(1-methoxypropan-2-yl)-2-methyl-N-((6-methyl-2-oxo-4-propyl-1,2-dihydropyridin-3-yl)methyl)-1H-pyrrolo[2,3-b]pyridine-3-carboxamide] | 100 to 1000 | 1000 to 10000 |  |
| CCC(c1ccccc1)n1c(C)c(C(=O)NCc2c(C)cc(C)[nH]c2=O)c2cccnc21 (racemic) [Compound 220, (±)-N-((4,6-dimethyl-2-oxo-1,2-dihydropyridin-3-yl)methyl)-2-methyl-1-(1-phenylpropyl)-1H-pyrrolo[2,3-b]pyridine-3-carboxamide] | < 100 | 100 to 1000 |  |
| Cc1cc(C)c(CNC(=O)c2c(C)n(C(C)Cn3cccn3)c3ncccc23)c(=O)[nH]1 (racemic) [Compound 221, (±)-1-(1-(1H-pyrazol-1-yl)propan-2-yl)-N-((4,6-dimethyl-2-oxo-1,2-dihydropyridin-3-yl)methyl)-2-methyl-1H-pyrrolo[2,3-b]pyridine-3-carboxamide] |  |  | IC50 (EZH2 (rPRC2); [3]): 100 to 1000 nM; IC50 (Y641N EZH2; [4]): 1000 to 10000 nM |
| COc1nccc(C(C)n2c(C)c(C(=O)NCc3c(OC)cc(C)[nH]c3=O)c3cccnc32)n1 (racemic) [Compound 232, (±)-N-((4-methoxy-6-methyl-2-oxo-1,2-dihydropyridin-3-yl)methyl)-1-(1-(2-methoxypyrimidin-4-yl)ethyl)-2-methyl-1H-pyrrolo[2,3-b]pyridine-3-carboxamide] | 100 to 1000 | 1000 to 10000 |  |
| COc1nccc(C(C)n2c(C)c(C(=O)NCc3c(C)cc(C)[nH]c3=O)c3cccnc32)n1 (racemic) [Compound 233, (±)-N-((4,6-dimethyl-2-oxo-1,2-dihydropyridin-3-yl)methyl)-1-(1-(2-methoxypyrimidin-4-yl)ethyl)-2-methyl-1H-pyrrolo[2,3-b]pyridine-3-carboxamide] | 100 to 1000 | 1000 to 10000 |  |
| Cc1cc(C)c(CNC(=O)c2cnn(C(C)c3ccccc3)c2C)c(O)n1 (single isomer, unassigned) [Compound 108, (R or S)—N-((2-hydroxy-4,6-dimethylpyridin-3-yl)methyl)-5-methyl-1-(1-phenylethyl)-1H-pyrazole-4-carboxamide] |  |  | IC50 (EZH2 (rPRC2); [3]): > 10000 nM |
| COc1cc(C)[nH]c(=O)c1CNC(=O)c1c(C)n(C(C)c2ccccc2)c2ccccc12 (single isomer, unassigned) [Compound 115, (S or R)N-((4-methoxy-6-methyl-2-oxo-1,2-dihydropyridin-3-yl)methyl)-2-methyl-1-(1-phenylethyl)-1H-indole-3-carboxamide] |  |  | IC50 (EZH2 (rPRC2); read-out: EZH2 IC50, wild-type EZH2 (rPRC2)): < 100 nM |
| Cc1cc(C)c(CNC(=O)c2c(C)n(C(C)c3ccccc3)c3ncccc23)c(=O)[nH]1 (single isomer, unassigned) [Compound 117, N-((4,6-dimethyl-2-oxo-1,2-dihydropyridin-3-yl)methyl)-2-methyl-1-(1-phenylethyl)-1H-pyrrolo[2,3-b]pyridine-3-carboxamide] |  |  | IC50 (Y641N EZH2; read-out: Y641N EZH2 IC50, Y641N mutant EZH2, H3K27Me2 oligonucleosome substrate): 100 to 1000 nM |
| CCC(C)n1c(C)c(C(=O)NCc2c(C)cc(C)[nH]c2=O)c2cccnc21 (single isomer, unassigned) [Compound 196, (R or S)-1-(sec-butyl)-N-((4,6-dimethyl-2-oxo-1,2-dihydropyridin-3-yl)methyl)-2-methyl-1H-pyrrolo[2,3-b]pyridine-3-carboxamide] |  | 100 to 1000 |  |
| Cc1cc(C)c(CNC(=O)c2c(-c3ccccc3)n(C(C)c3ccccc3)c3ccccc23)c(O)n1 (single isomer, unassigned) [Compound 446, (R or S)-N-((2-hydroxy-4,6-dimethylpyridin-3-yl)methyl)-2-phenyl-1-(1-phenylethyl)-1H-indole-3-carboxamide] |  |  | EZH2 IC50 (EZH2 (rPRC2); wild-type EZH2 (rPRC2)): *(10 uM) |

Source: US9371331B2, “Modulators of methyl modifying enzymes, compositions and uses thereof” (Constellation Pharmaceuticals, Inc., priority 2012, dated 2016)
